Measured values reported in ChEMBL document CHEMBL1201862, “PubChem BioAssay data set” (2004).
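Interpolation was linear, between the two tested concentrations surrounding the appropriate level; five concentrations were tested over 48 hours in 96-well plates. The concentration for 50% growth inhibition is given as GI50.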 The source made the active and inactive calls. No stated cut-off is given here; in the data, active = GI50 up to about 1.1 µM and inactive = higher.

What was measured:
Test in all cases: inhibition of tumour cell growth, NCI panel, 48 h
[1] = tested on: CCRF-CEM
[2] = tested on: EKVX
[3] = tested on: HT-29
[4] = tested on: KM-20L2
[5] = tested on: KM12
[6] = tested on: LOX IMVI
[7] = tested on: NCI-H460
[8] = tested on: RXF 393
[9] = tested on: SF-295
[10] = tested on: SK-MEL-5
[11] = tested on: SN12C
[12] = tested on: SNB-75
[13] = tested on: SNB-78
[14] = tested on: TK-10
[15] = tested on: U-251
[16] = tested on: UACC-62
[17] = tested on: CAKI-1
[18] = tested on: HOP-92
[19] = tested on: SK-OV-3
[20] = tested on: MCF7

SMILES	GI50 [1]	GI50 [2]	GI50 [3]	GI50 [4]	GI50 [5]	GI50 [6]	GI50 [7]	GI50 [8]	GI50 [9]	GI50 [10]	GI50 [11]	GI50 [12]	GI50 [13]	GI50 [14]	GI50 [15]	GI50 [16]	GI50 [17]	GI50 [18]	GI50 [19]	GI50 [20]
CCN(CC)C(=O)C(C)n1cc(C)c(=O)[nH]c1=O (stereo not given)	> 100 µM (inactive)	> 100 µM (inactive)	> 100 µM (inactive)	> 100 µM (inactive)	> 100 µM (inactive)	> 100 µM (inactive)	> 100 µM (inactive)	> 100 µM (inactive)	> 100 µM (inactive)	> 100 µM (inactive)	> 100 µM (inactive)	15.1 µM (inactive)	> 100 µM (inactive)	> 100 µM (inactive)	> 100 µM (inactive)	> 100 µM (inactive)	–	–	–	–
CCOC(=O)C1C(c2cc(OC)c(O)c(OC)c2)c2cc3c(cc2OC1(C)O)OCO3 (stereo not given)	> 100 µM (inactive)	> 100 µM (inactive)	41.1 µM (inactive)	64.9 µM (inactive)	–	93.1 µM (inactive)	48.2 µM (inactive)	–	35.2 µM (inactive)	36 µM (inactive)	88.5 µM (inactive)	16.5 µM (inactive)	81.7 µM (inactive)	> 100 µM (inactive)	78.9 µM (inactive)	43.9 µM (inactive)	26 µM (inactive)	11.5 µM (inactive)	> 100 µM (inactive)	–
CN1CCc2c1nc(-c1ccc([N+](=O)[O-])cc1)c1c2N(C)CC1	> 100 µM (inactive)	> 100 µM (inactive)	25.5 µM (inactive)	> 100 µM (inactive)	30.9 µM (inactive)	44.2 µM (inactive)	> 100 µM (inactive)	35.2 µM (inactive)	> 100 µM (inactive)	97.3 µM (inactive)	> 100 µM (inactive)	> 100 µM (inactive)	> 100 µM (inactive)	> 100 µM (inactive)	> 100 µM (inactive)	> 100 µM (inactive)	26.4 µM (inactive)	9.4 µM (inactive)	> 100 µM (inactive)	–
CCOC(=O)c1c(NC(=S)NCc2ccccc2)sc2c1CCN(C)C2	17.6 µM (inactive)	78 µM (inactive)	45.5 µM (inactive)	–	24.4 µM (inactive)	–	40.8 µM (inactive)	–	57.3 µM (inactive)	45.1 µM (inactive)	42.7 µM (inactive)	–	–	64.9 µM (inactive)	–	> 100 µM (inactive)	> 100 µM (inactive)	–	–	52.6 µM (inactive)
NC(=O)C(=O)N/N=C1/c2ccccc2CC1C1(O)C(=O)Nc2c(Cl)cc(Cl)cc21 (stereo not given)	61.5 µM (inactive)	> 100 µM (inactive)	> 100 µM (inactive)	> 100 µM (inactive)	> 100 µM (inactive)	88.3 µM (inactive)	> 100 µM (inactive)	92 µM (inactive)	> 100 µM (inactive)	> 100 µM (inactive)	> 100 µM (inactive)	97.3 µM (inactive)	> 100 µM (inactive)	> 100 µM (inactive)	> 100 µM (inactive)	> 100 µM (inactive)	81.8 µM (inactive)	> 100 µM (inactive)	> 100 µM (inactive)	–
C=C1C(=O)O[C@H]2C/C(C)=C/CC[C@@]3(C)O[C@](C)(CC[C@@H]3I)[C@@H](I)C[C@@H]12	0.592 µM (active)	7.16 µM (inactive)	3.37 µM (inactive)	–	3.61 µM (inactive)	1.56 µM (inactive)	6.38 µM (inactive)	3.97 µM (inactive)	6.84 µM (inactive)	3.32 µM (inactive)	4.2 µM (inactive)	6.03 µM (inactive)	–	6.03 µM (inactive)	4.49 µM (inactive)	4.16 µM (inactive)	7.19 µM (inactive)	5.83 µM (inactive)	7.24 µM (inactive)	2.25 µM (inactive)
Cc1cc2cccc(Cl)c2nc1C(=O)c1ccccc1	–	–	–	> 100 µM (inactive)	> 100 µM (inactive)	94.4 µM (inactive)	–	26.6 µM (inactive)	18.9 µM (inactive)	> 100 µM (inactive)	> 100 µM (inactive)	17.1 µM (inactive)	> 100 µM (inactive)	> 100 µM (inactive)	> 100 µM (inactive)	> 100 µM (inactive)	> 100 µM (inactive)	–	–	–
Oc1ccc(Cl)cc1C1=Nn2c(COc3ccc4c(c3)CCCC4)nnc2SC1	17 µM (inactive)	15.9 µM (inactive)	–	–	14.6 µM (inactive)	14 µM (inactive)	14 µM (inactive)	16.5 µM (inactive)	14 µM (inactive)	5.25 µM (inactive)	6.28 µM (inactive)	–	–	4.72 µM (inactive)	15.3 µM (inactive)	12.4 µM (inactive)	19.4 µM (inactive)	3.04 µM (inactive)	16.9 µM (inactive)	14.7 µM (inactive)
